“Also recorded” adds a separate entry of the source. Read-outs that look alike come from different tables or passages of the source.
Tests used:
[1] = Efficacy of oral or iv S-(1) in mouse xenografts; format: in vivo, nude mice; details: mouse, in vivo, po; nude mice; from efficacy studies and MTD studies; read-out: apparent oral bioavailability
Experimental: (§1) Summary of Experimental Protocol: Human neuroblastoma tumor cells were implanted via subcutaneous injection of 1-10×10^6 cells in nude mice. Tumors were allowed to grow to 200 mg+/−50 mg in size. Drug dosing was initiated, and tumor volume and body weight were recorded twice weekly.
(§2) The mean value for % body weight change and % tumor volume increase for each experimental group was plotted including error bars for the standard error of the mean.
(§3) Other metrics for assessing antitumor effects include: % T/C values as calculated by the following formula:
(§4) [formula] Log Kill=(T−C)/3.32×(Td)

human tumor xenografts = assay: Efficacy of oral or iv S-(1) in mouse xenografts; format: in vivo, nude mice; details: human tumor xenografts in nude mice
Experimental: as §1, §2, §3, §4

[2] = system: human U251 (glioblastoma) CNS tumor cells; details: for median day of death and median survival time: iv, 240 h
Text: Tumor Model: Each animal was implanted with one million U251 human CNS tumor cells from an in vitro cell line by ic injection with a 25 gauge needle. The day of tumor implantation (May 24, 2006) was designated as day 0. A sufficient number of mice were implanted so that animals with body weights in a range as narrow as possible were selected for the trial on the day of treatment initiation (day 1 after tumor implantation). Animals were randomly assigned to the treatment groups and individually identified by earmark codes.
A portion of this solution was then diluted with the complete vehicle to achieve the lower dosing concentration of 1.2 mg/mL. […] Temozolomide (Temodar, Schering Corporation) was prepared on each day of injection in Klucel+tween 80 at a concentration of 4 mg/mL. Temozolomide was administered within 5 minutes of formulation on the basis of exact body weight using a volume of 0.2 mL/10 g of body weight.
Data Collection: Animal health surveillance was conducted and mortality data were collected daily. The animals were weighed twice weekly starting with the first day of treatment.
Study Duration: The study was terminated 100 days after tumor implantation. Any animal found moribund or whose body weight dropped below 14 g was euthanized prior to study termination.
Parameters Evaluated: Number of 100-day survivors, median day of death, and the increase in lifespan based on median day of death and expressed as a percentage (% ILS), median survival time and the % ILS based on median survival time.
Administration of the Ringer's solution was initiated when animal body weights dropped by greater than 10% and continued until the animal recovered, died, or was euthanized.

[3] = Phase 1 Study S-(1)-02, i.v. every 21 days, safety and pharmacokinetics; format: in vivo, patients; details: for AUC0-24 / Cl / Vss / t1/2: Study S-(1)-02 (15:85 Cremophor EL-P/ethanol), i.v., first dose; for half-life: human, plasma, intravenous
Experimental: treatment cycles are repeated every 28 days in patients who remain eligible for continued treatment. Study S-(1)-O1 is currently being conducted in the United States. […] Study S-(I)-02 is currently being conducted in the United States and in Israel.
Plasma pharmacokinetics of S-(1) were assessed following the first dose of S-(1) in both studies. Plasma samples were analyzed for S-(1) using a validated LC/MS-MS method.
Treatment cohorts were expanded to 6 pts in the face of dose-limiting toxicity (DLT); pts could remain on study until the development of progressive disease or an intolerable adverse event. DLT was defined as Gr 4 heme toxicity lasting 7 days; febrile neutropenia, Gr 3 thrombocytopenia with bleeding, Gr 3 elevation of transaminases lasting 7 days or any other Gr ¾ toxicity other than nausea or vomiting.

central nervous system = assay: Central nervous system (CNS) safety study in rats; format: in vivo, rat
Experimental: This study was conducted at ClinTrials BioResearch (CTBR, Montreal, Quebec, Canada) as a GLP study.
Results: All animals were observed twice daily for signs of ill health or reaction to treatment, except on day of arrival and necropsy. A Functional Observation Battery
(FOB) assessment, along with grip strength, hind limb splay and body temperature measurements were performed for all animals once pre-dose and at approximately 15 minutes, 1 hour, 4 hours, 8 hours and 24 hours post-dose. After the last observation, all animals were euthanized without further examination.

[4] = S-(1) rat oral bioavailability, formulations evaluated in vivo
Experimental: IV formulation (Cremophor El P/alcohol) and a suspension of the compound of Formula S-(1) in aqueous medium: Several studies were performed to investigate specific parameters.
Using the 50:50 CremophoπEthanol formulation as a case study (AUC last: 2540; norm AUCinf: 477), F was calculated from the ratio of the normalized PO and IV AUCs: F(%)=norm. AUC PO/norm. AUC IV.

[5] = S-(1) Injection mouse PK parameters, IV and oral; format: in vivo

C=C[C@H]1O[C@H]2CC3OC[C@@]3(OC(C)=O)[C@H]3[C@H](OC(=O)c4ccccc4)[C@]4(C(C)(C)O)C[C@H](OC(=O)[C@H](O)[C@H](CC(C)C)NC(=O)OC(C)(C)C)C(C)=C4[C@H](OC(C)=O)[C@H](O1)[C@]23C (stereo partly drawn) [S-(1)]
bioavailability [1]: 70 to 80%
efficacy / antitumor activity in mouse xenografts (in words) (human tumor xenografts): demonstrated antitumor activity against multiple human tumor xenografts in nude mice, including xenografts that expressed mdr-1 and that were resistant to other taxanes; also recorded: suppressed the growth of multiple human tumor xenografts in nude mice, including xenografts that expressed mdr-1 and that were resistant to other taxanes; also recorded: shows efficacy
median day of death and median survival time ([2]; 12 mg/kg): 14.5 days
median day of death and median survival time ([2]; 20 mg/kg): 16 days
effect against the U251 human CNS tumor cells (in words) ([2]; monotherapy or combination treatment, intracranial xenograft): moderate effect
AUC0-24 ([3]; 56 mg/m^2, plasma): 2530 ± 847 ng·h/mL
Cl ([3]; 56 mg/m^2, plasma): 18.9 ± 9.53 L/hr/m^2
Vss ([3]; 56 mg/m^2, plasma): 232 ± 93.6 L/m^2
t1/2 ([3]; 56 mg/m^2, plasma): 8.96 ± 7.09 h
AUC0-24 ([3]; 84 mg/m^2, plasma): 3710 ng·h/mL
Cl ([3]; 84 mg/m^2, plasma): 15.4 L/hr/m^2
Vss ([3]; 84 mg/m^2, plasma): 300 L/m^2
AUC0-24 ([3]; 126 mg/m^2, plasma): 6110 ± 3030 ng·h/mL
Cl ([3]; 126 mg/m^2, plasma): 22.1 ± 11.2 L/hr/m^2
Vss ([3]; 126 mg/m^2, plasma): 166 ± 105 L/m^2
t1/2 ([3]; 126 mg/m^2, plasma): 6.27 ± 3.64 h
AUC0-24 ([3]; 185 mg/m^2, plasma): 7260 ± 2620 ng·h/mL
Cl ([3]; 185 mg/m^2, plasma): 24.7 ± 12.2 L/hr/m^2
Vss ([3]; 185 mg/m^2, plasma): 215 ± 116 L/m^2
t1/2 ([3]; 185 mg/m^2, plasma): 3.43 ± 7.31 h
dose limiting toxicity ([3]; Study S-(1)-02, i.v. every 21 days, 185 mg/m^2 (2 patients)): Grade 3 sensory neuropathy; also recorded: Gr 3 peripheral sensory neuropathy
dose that can be safely administered ([3]; every 21 days in heavily pre-treated patients): 160 mg/m^2
patients who experienced Gr 4 neutropenia ([3]; every 21 days, 14 patients): 1 pt
drug related adverse events ([3]; every 21 days, 56-185 mg/m^2, 14 patients): mucositis, vomiting, diarrhea, neutropenia, thrombocytopenia, myalgias and peripheral neuropathy
dose limiting toxicity ([3]; every 21 days, dose of 160 mg/m^2): no DLT was observed
dose dependence of AUC (in words) ([3]; every-21-days study): generally dose linear
clearance ([3]; every-21-days study summary, dose of 126 mg/m^2): 24.7±12.2 L/hr/m^2
tumor response ([3]; every-21-days study, patients with advanced cancer): 1 pt with pancreatic cancer had a confirmed response
half-life ([3]; 126 mg/m2, every-21-days study summary, dose of 126 mg/m^2, read-out: t1/2 (converted)): 10.6 h
half-life ([3]; Study S-(1)-02, after first dose, read-out: Plasma t1/2, range over dose groups): 3.43 to 8.96 h
biological effect on central nervous system (functional observational battery, grip strength, hind limb splay, body temperature) (central nervous system; single intravenous 6.25, 12.5 or 25 mg/kg, male Sprague Dawley rats, 15 minutes, 1, 4, 8 and 24 hours post-dose): no biological effects
deaths or treatment-related clinical signs (central nervous system; single intravenous 6.25, 12.5 or 25 mg/kg, male rats): no deaths or treatment-related clinical signs
no adverse effect level (central nervous system; single intravenous dose, male Sprague Dawley rats): 25 mg/kg
difference in F with different formulations (in words) [4]: no significant difference in F with different formulations
bioavailability ([4]; in vivo, using a cremophor-free formulation as reference, read-out: effective F (real bioavailability)): 60 to 70%
AUCinf ([5]; IV 10/mg/kg): 7.738 µM·h
AUClast ([5]; IV 10/mg/kg): 6.298 µM·h
CL ([5]; IV 10/mg/kg): 24.8 mL/min/kg
Vdss ([5]; IV 10/mg/kg): 13.35 L/kg
t½ ([5]; IV 10/mg/kg): 6.1 h
AUCinf ([5]; Oral 10 mg/kg): 3.609 µM·h
AUClast ([5]; Oral 10 mg/kg): 3.434 µM·h
Cmax ([5]; Oral 10 mg/kg): 460 nM
t½ ([5]; Oral 10 mg/kg): 5.1 h
F ([5]; Oral 10 mg/kg vs IV): 47%
Tmax ([5]; in vivo, Oral 10 mg/kg): 6 h
